Target: SRSF protein kinase 1 (Homo sapiens, UniProt Q96SB4)
Test: Inhibition of SRPK1 (unknown origin) using RS peptide as substrate incubated for 120 mins in the presence 33P-ATP

Chain of SRSF protein kinase 1 (Q96SB4 whole entry): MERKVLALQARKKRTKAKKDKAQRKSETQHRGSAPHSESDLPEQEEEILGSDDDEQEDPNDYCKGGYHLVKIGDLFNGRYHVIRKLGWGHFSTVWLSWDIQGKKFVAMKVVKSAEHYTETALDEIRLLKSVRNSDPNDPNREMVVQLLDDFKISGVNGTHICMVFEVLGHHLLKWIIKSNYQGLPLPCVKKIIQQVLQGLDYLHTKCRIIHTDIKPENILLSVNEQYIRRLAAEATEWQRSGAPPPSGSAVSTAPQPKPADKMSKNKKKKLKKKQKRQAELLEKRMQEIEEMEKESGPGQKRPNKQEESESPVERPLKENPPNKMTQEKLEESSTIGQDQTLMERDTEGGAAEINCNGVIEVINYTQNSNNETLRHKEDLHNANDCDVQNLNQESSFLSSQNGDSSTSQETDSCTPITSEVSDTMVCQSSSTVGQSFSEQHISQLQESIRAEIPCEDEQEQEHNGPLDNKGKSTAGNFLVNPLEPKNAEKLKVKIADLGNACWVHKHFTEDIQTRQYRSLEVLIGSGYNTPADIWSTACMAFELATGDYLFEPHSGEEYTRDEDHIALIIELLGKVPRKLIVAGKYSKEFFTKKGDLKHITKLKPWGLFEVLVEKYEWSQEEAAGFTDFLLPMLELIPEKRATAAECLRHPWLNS

IC50 | Compound
< 50 nM | CN(c1ncccc1CNc1cnc(-c2nc3cc(F)cc(F)c3[nH]2)nc1)S(C)(=O)=O
< 50 nM | CN(c1ncccc1CNc1ccc(-c2nc3cc(Cl)ccc3[nH]2)nc1)S(C)(=O)=O
< 50 nM | CN(c1ncccc1CNc1cnc(-c2nc3cc(-c4cnn(C)c4)ccc3[nH]2)nc1)S(C)(=O)=O
< 50 nM | CC(C)c1ccc2[nH]c(-c3ncc(NCc4cccnc4N(C)S(C)(=O)=O)cn3)nc2c1
< 50 nM | Cc1ccc2nc(-c3ncc(NCc4cccnc4N(C)S(C)(=O)=O)cn3)[nH]c2c1
< 50 nM | CN(c1ncccc1CNc1cnc(-c2nc3cc(Cl)cc(F)c3[nH]2)nc1)S(C)(=O)=O

Source: ChEMBL document CHEMBL5257144, “Novel Serine-Arginine Protein Kinase Inhibitors for Treating Cancer” (ACS Med Chem Lett, 2023)
